According to patent US20260297109A1, “COMPOUNDS AS SUMO ACTIVATING ENZYME INHIBITORS” (WIGEN BIOMEDICINE TECHNOLOGY (SHANGHAI) CO., LTD., priority 2022, published 2026):
Where two headings read alike, the source gives them in different places.

Tests used:
[1] = In vivo pharmacokinetic experiment in CD-1 female mice, intravenous; settings: CD-1 mice; for Plasma AUClast: plasma (Table 4); for C0 / clearance / half-life / AUC(0-t) / Cmax / Vd / blood plasma ratio: mouse; for Vd: read-out: Vdss; for blood plasma ratio: in vivo, iv
Procedure: Biological Example 3. In Vivo Pharmacokinetic Experiment of Compound of the Present Disclosure
[…] The mice were fasted for at least 12 h before the administration and given food after the administration, and they were given ad libitum access to water during the experiment. On the day of the experiment, animals in the intravenous group were administered the corresponding compound by single injection via the tail vein at an administration volume of 0.2 mL/animal. The sample collection time was 0.083 h, 0.167 h, 0.5 h, 1 h, 2 h, 4 h, 8 h, and 24 h. About 150 μL of whole blood was collected through the submaxillary venous plexus at each time point (30 μL of whole blood was diluted with ultrapure water at a ratio of 1:3, and 120 μL of whole blood was centrifuged to obtain plasma) and used for concentration determination by high-performance liquid chromatography-tandem mass spectrometry (LC-MS/MS). All animals were sacrificed after the PK samples were collected at the last time point. The plasma concentration was processed using a non-compartmental model of Phoenix WinNonlin™ version 8.3 (Certara) pharmacokinetic software, and the pharmacokinetic parameters were calculated using a linear-log trapezoidal method.

SAE = target: T1, SAE (Homo sapiens, UniProt Q9UBT2); test: SUMO IF: in vitro inhibitory activity assay against SAE in HCT116 cells (SUMO-2/3 immunofluorescence); format: cell-based; settings: 6 h at 37° C.
T1 construct: endogenous in cells; host or cells: HCT116
T1 sequence (Q9UBT2 1-640): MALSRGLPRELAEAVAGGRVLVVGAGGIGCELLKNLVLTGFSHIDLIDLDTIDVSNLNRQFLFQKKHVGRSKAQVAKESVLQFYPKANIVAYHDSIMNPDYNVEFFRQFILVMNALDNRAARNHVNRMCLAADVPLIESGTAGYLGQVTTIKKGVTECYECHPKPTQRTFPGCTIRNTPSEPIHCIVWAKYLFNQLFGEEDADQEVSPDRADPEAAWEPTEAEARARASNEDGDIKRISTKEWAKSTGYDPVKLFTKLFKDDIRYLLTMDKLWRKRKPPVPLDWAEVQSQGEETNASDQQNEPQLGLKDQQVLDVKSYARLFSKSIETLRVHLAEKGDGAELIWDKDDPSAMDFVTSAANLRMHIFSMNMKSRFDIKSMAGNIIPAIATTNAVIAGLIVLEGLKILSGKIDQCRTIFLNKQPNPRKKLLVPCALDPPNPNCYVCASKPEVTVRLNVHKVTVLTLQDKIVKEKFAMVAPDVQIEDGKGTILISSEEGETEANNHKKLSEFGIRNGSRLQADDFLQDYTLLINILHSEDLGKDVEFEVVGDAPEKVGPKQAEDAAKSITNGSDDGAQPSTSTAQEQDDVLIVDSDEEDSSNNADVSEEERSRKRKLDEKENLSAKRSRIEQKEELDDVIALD
T1 sequence (Q9UBE0 1-346): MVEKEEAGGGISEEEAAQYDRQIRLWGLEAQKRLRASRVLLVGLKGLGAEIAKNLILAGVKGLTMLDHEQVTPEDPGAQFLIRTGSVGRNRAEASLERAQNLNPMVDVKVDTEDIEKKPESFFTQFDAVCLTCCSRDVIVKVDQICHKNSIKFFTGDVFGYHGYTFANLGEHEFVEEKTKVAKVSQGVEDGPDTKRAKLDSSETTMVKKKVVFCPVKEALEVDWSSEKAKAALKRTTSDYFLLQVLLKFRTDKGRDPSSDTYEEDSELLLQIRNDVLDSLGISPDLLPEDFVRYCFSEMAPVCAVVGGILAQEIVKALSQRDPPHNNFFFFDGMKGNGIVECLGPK
Procedure, shortened: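 HCT116 cells were treated with compound for 6 h at 37 °C, then PFA-fixed, Triton-permeabilised and BSA-blocked. They were stained overnight at 4 °C with anti-SUMO-2/3 (18H8) rabbit mAb (1:400), then with FITC anti-rabbit IgG (1:300). Fluorescence versus DMSO gave inhibition rate and IC50.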

[2] = 2 mg/kg, 2 mpk, plasma, read-out: AUClast
[3] = 2 mg/kg, 2 mpk, plasma, read-out: Cmax
[4] = 2 mg/kg, 2 mpk, whole blood, read-out: Whole blood AUClast
[5] = 2 mg/kg, 2 mpk, whole blood, read-out: Whole blood Cmax
[6] = 2 mg/kg, 2 mpk, read-out: Whole blood AUClast/plasma AUClast ratio
[7] = 2 mg/kg, 2 mpk, read-out: Whole blood Cmax/plasma Cmax ratio

NS(=O)(=O)OC[C@H]1[C@H](F)[C@@H](Nc2ncncc2C(=O)c2cc3c(s2)CCC[C@]32NCCc3ccc(Cl)cc32)C[C@@H]1O [Compound 90]
Plasma AUClast ([1]; 2 mpk): 615 ng·h/mL | C0 ([1]; 2 mg/kg, 2 mpk, plasma): 431 ng/mL | clearance ([1]; 2 mg/kg, 2 mpk, plasma): 53.1 mL/min/kg | half-life ([1]; 2 mg/kg, 2 mpk, plasma): 4.73 h | AUC(0-t) [1, 2]: 615 ng·h/mL | Cmax [1, 3]: 331 ng/mL | Vd ([1]; 2 mg/kg, 2 mpk, plasma): 12.7 L/kg | AUC(0-t) [1, 4]: 46600 ng·h/mL | Cmax [1, 5]: 13400 ng/mL | blood plasma ratio [1, 6]: 75.7 | blood plasma ratio [1, 7]: 40.5 | IC50 (SAE; numeric values): 21.1 nM

NS(=O)(=O)OC[C@H]1[C@H](F)[C@@H](Nc2ncncc2C(=O)c2cc3c(s2)CCC[C@]32NCCc3ccc(F)cc32)C[C@@H]1O [Compound 93]
Plasma AUClast ([1]; 2 mpk): 448 ng·h/mL | C0 ([1]; 2 mg/kg, 2 mpk, plasma): 406 ng/mL | clearance ([1]; 2 mg/kg, 2 mpk, plasma): 71.1 mL/min/kg | half-life ([1]; 2 mg/kg, 2 mpk, plasma): 1.88 h | AUC(0-t) [1, 2]: 448 ng·h/mL | Cmax [1, 3]: 281 ng/mL | Vd ([1]; 2 mg/kg, 2 mpk, plasma): 9.18 L/kg | AUC(0-t) [1, 4]: 25100 ng·h/mL | Cmax [1, 5]: 13300 ng/mL | blood plasma ratio [1, 6]: 56 | blood plasma ratio [1, 7]: 47.4 | IC50 (SAE; numeric values): 32.1 nM

NS(=O)(=O)OC[C@H]1[C@H](F)[C@@H](Nc2ncncc2C(=O)c2cc3c(s2)CC[C@]32NCCc3ccc(Cl)cc32)C[C@@H]1O [Compound 132]
Plasma AUClast ([1]; 2 mpk): 602 ng·h/mL | C0 ([1]; 2 mg/kg, 2 mpk, plasma): 803 ng/mL | clearance ([1]; 2 mg/kg, 2 mpk, plasma): 27.5 mL/min/kg | half-life ([1]; 2 mg/kg, 2 mpk, plasma): 3.48 h | AUC(0-t) [1, 2]: 602 ng·h/mL | Cmax [1, 3]: 438 ng/mL | Vd ([1]; 2 mg/kg, 2 mpk, plasma): 5.45 L/kg | AUC(0-t) [1, 4]: 38200 ng·h/mL | Cmax [1, 5]: 9270 ng/mL | blood plasma ratio [1, 6]: 63.4 | blood plasma ratio [1, 7]: 21.1 | IC50 (SAE; numeric values): 40.6 nM

Cc1sc(C(=O)c2cncnc2N[C@H]2C[C@H](O)[C@@H](COS(N)(=O)=O)[C@@H]2F)cc1[C@@H]1NCCc2ccc(Cl)cc21 [Compound 233]
Plasma AUClast ([1]; 1 mpk): 132 ng·h/mL | C0 ([1]; 1 mg/kg, 1 mpk, plasma): 77 ng/mL | clearance ([1]; 1 mg/kg, 1 mpk, plasma): 103 mL/min/kg | half-life ([1]; 1 mg/kg, 1 mpk, plasma): 3.63 h | AUC(0-t) ([1]; 1 mg/kg, 1 mpk, plasma, read-out: AUClast): 132 ng·h/mL | Cmax ([1]; 1 mg/kg, 1 mpk, plasma, read-out: Cmax): 58 ng/mL | Vd ([1]; 1 mg/kg, 1 mpk, plasma): 27.6 L/kg | AUC(0-t) ([1]; 1 mg/kg, 1 mpk, whole blood, read-out: Whole blood AUClast): 30100 ng·h/mL | Cmax ([1]; 1 mg/kg, 1 mpk, whole blood, read-out: Whole blood Cmax): 4430 ng/mL | blood plasma ratio ([1]; 1 mg/kg, 1 mpk, read-out: Whole blood AUClast/plasma AUClast ratio): 228 | blood plasma ratio ([1]; 1 mg/kg, 1 mpk, read-out: Whole blood Cmax/plasma Cmax ratio): 76.3 | IC50 (SAE; numeric values): 42.6 nM

NS(=O)(=O)OC[C@H]1[C@H](F)[C@@H](Nc2ncncc2C(=O)c2cc3c(s2)C=C[C@]32NCCc3ccc(Cl)cc32)C[C@@H]1O [Compound 344]
Plasma AUClast ([1]; 2 mpk): 345 ng·h/mL | C0 ([1]; 2 mg/kg, 2 mpk, plasma): 249 ng/mL | clearance ([1]; 2 mg/kg, 2 mpk, plasma): 94.9 mL/min/kg | half-life ([1]; 2 mg/kg, 2 mpk, plasma): 1.48 h | AUC(0-t) [1, 2]: 345 ng·h/mL | Cmax [1, 3]: 299 ng/mL | Vd ([1]; 2 mg/kg, 2 mpk, plasma): 8.65 L/kg | AUC(0-t) [1, 4]: 17000 ng·h/mL | Cmax [1, 5]: 7780 ng/mL | blood plasma ratio [1, 6]: 49.2 | blood plasma ratio [1, 7]: 26 | IC50 (SAE; numeric values): 20.7 nM

CC1(C)Cc2ccc(Cl)cc2C2(CCCc3sc(C(=O)c4cncnc4N[C@H]4C[C@H](O)[C@@H](COS(N)(=O)=O)[C@@H]4F)cc32)N1 (stereo partly drawn) [Compound 1029]
IC50 (SAE; class symbols): 50 to 200 nM

CC1(C)Cc2ccc(Cl)cc2[C@]2(CCCc3sc(C(=O)c4cncnc4N[C@H]4C[C@H](O)[C@@H](COS(N)(=O)=O)[C@@H]4F)cc32)N1 [Compound 1030]
IC50 (SAE; class symbols): > 200 nM

CC1(C)Cc2ccc(Cl)cc2[C@@]2(CCCc3sc(C(=O)c4cncnc4N[C@H]4C[C@H](O)[C@@H](COS(N)(=O)=O)[C@@H]4F)cc32)N1 [Compound 1031]
IC50 (SAE; class symbols): 50 to 200 nM

CC1CNC2(C=Cc3sc(C(=O)c4cncnc4N[C@H]4C[C@H](O)[C@@H](COS(N)(=O)=O)[C@@H]4F)cc32)c2cc(Cl)ccc21 (stereo partly drawn) [Compound 1053]
IC50 (SAE; class symbols): 50 to 200 nM

CC1CN[C@@]2(C=Cc3sc(C(=O)c4cncnc4N[C@H]4C[C@H](O)[C@@H](COS(N)(=O)=O)[C@@H]4F)cc32)c2cc(Cl)ccc21 (stereo partly drawn) [Compound 1054]
IC50 (SAE; class symbols): > 200 nM

CC1CN[C@]2(C=Cc3sc(C(=O)c4cncnc4N[C@H]4C[C@H](O)[C@@H](COS(N)(=O)=O)[C@@H]4F)cc32)c2cc(Cl)ccc21 (stereo partly drawn) [Compound 1055]
IC50 (SAE; class symbols): ≤ 50 nM

CC1Cc2ccc(Cl)cc2C2(C=Cc3sc(C(=O)c4cncnc4N[C@H]4C[C@H](O)[C@@H](COS(N)(=O)=O)[C@@H]4F)cc32)N1 (stereo partly drawn) [Compound 1056]
IC50 (SAE; class symbols): 50 to 200 nM

CC1Cc2ccc(Cl)cc2[C@]2(C=Cc3sc(C(=O)c4cncnc4N[C@H]4C[C@H](O)[C@@H](COS(N)(=O)=O)[C@@H]4F)cc32)N1 (stereo partly drawn) [Compound 1057]
IC50 (SAE; class symbols): > 200 nM

CC1Cc2ccc(Cl)cc2[C@@]2(C=Cc3sc(C(=O)c4cncnc4N[C@H]4C[C@H](O)[C@@H](COS(N)(=O)=O)[C@@H]4F)cc32)N1 (stereo partly drawn) [Compound 1058]
IC50 (SAE; class symbols): 50 to 200 nM

CC1(C)CNC2(C=Cc3sc(C(=O)c4cncnc4N[C@H]4C[C@H](O)[C@@H](COS(N)(=O)=O)[C@@H]4F)cc32)c2cc(Cl)ccc21 (stereo partly drawn) [Compound 1059]
IC50 (SAE; class symbols): 50 to 200 nM

CC1(C)CN[C@@]2(C=Cc3sc(C(=O)c4cncnc4N[C@H]4C[C@H](O)[C@@H](COS(N)(=O)=O)[C@@H]4F)cc32)c2cc(Cl)ccc21 [Compound 1060]
IC50 (SAE; class symbols): > 200 nM

CC1(C)CN[C@]2(C=Cc3sc(C(=O)c4cncnc4N[C@H]4C[C@H](O)[C@@H](COS(N)(=O)=O)[C@@H]4F)cc32)c2cc(Cl)ccc21 [Compound 1061]
IC50 (SAE; class symbols): 50 to 200 nM
